Legend:
[1] = system: wood-destroying soil termites (Reticulitermes santonensis); experiment: Forced termite test on treated Southern Yellow Pine wood samples (AWPA E1-97) after leaching stress (DIN EN 84); format: in vivo; conditions: after leaching (DIN EN 84); 4-week test; lower value = wood no longer sufficiently protected, higher value = minimum concentration for complete protection (score 10)
Experimental: Using water, the aqueous active compound composition according to the invention from example 5 was diluted to three different active compound concentrations. For comparison, α-cypermethrin was dissolved in acetone, and the solution was diluted to the corresponding active compound concentrations using further acetone.
To determine the activity thresholds of the composition according to the invention against wood-destroying soil termites (Reticulitermes santonensis), wood samples from Pinus spp. of the dimensions 25×25×6 mm^3 (Southern Yellow Pine), which met the American test standard AWPA E1-97 (see “Standard method for laboratory evaluation to determine resistance to subterranean termites”, American Wood-Preservers' Association, 2001) were tested in a forced test after leaching stress according to DIN EN 84: 1997-01 (see “accelerated aging of treated wood prior to biological testings”, European Committee for Standardization).
The destruction of the wood caused by the termite attack was, after a 4-week test period, evaluated by visual scoring of the sample woods in accordance with AWPA E1-97. In addition, the mortality rate among the termites was estimated. […]
For the aqueous active compound composition according to the invention, the threshold for α-cypermethrin after leaching was determined to be 9-21 g/m^3. […]

[2] = system: Coniophora puteana BAM Ebw. 15; experiment: Agar block method (Bravery test, similar to EN 113) on Southern Yellow Pine wood samples; format: cell-based; conditions: C. puteana, 6 weeks, weight loss <3% = sufficient protection
Experimental: (§1) The activity threshold of the composition according to the invention from example 1 against wood-destroying Basidiomycetes was determined by the agar block method on wood samples from Pinus spp. (Southern Yellow Pine) of the dimensions 40×15×4 mm^3. The test method with wood samples reduced in size, known as bravery test, is very similar to EN 113 and serves to determine the prophylactic action of wood preservatives against wood-destroying fungi (see A. F. Bravery, Intern. Res. Group Wood Pres., Doc. No. IRG/WP/2113, 5S., Stockholm 1978). For comparison, a solution of epoxiconazole in acetone was tested under the same conditions.
(§2) The wood samples impregnated with the composition according to the invention were, with and without leaching stress, tested according to EN 84. The test was carried out using four different active compound concentrations and in each case 5 parallel samples per active compound concentration and test fungus. The test fungi used were Coniophora puteana BAM Ebw. 15, Poria placenta FPRL 280 and Coriolus versicolor CTB 863A. The destruction of the wood caused by the fungal attack was evaluated using the weight loss of the sample woods, which was determined after 6 weeks. If the weight loss is less than 3% by weight, based on the initial dry weight of the test sample, the protection of the wood achieved by the preservative at a certain active compound concentration is considered to be sufficient. The activity concentration threshold is stated in two concentrations.
(§3) The values determined for a solution of the active compound in acetone are shown for comparison.

[3] = system: Poria placenta FPRL 280; experiment: as above; format: cell-based; conditions: P. placenta, 6 weeks, weight loss <3% = sufficient protection
Experimental: as §1, §2, §3

SMILES | threshold for α-cypermethrin after leaching [1] | Activity thresholds, with leaching ([2]; with leaching (EN 84)) | Activity thresholds, without leaching ([2]; without leaching) | Activity thresholds, with leaching ([3]; with leaching (EN 84)) | Activity thresholds, without leaching ([3]; without leaching)
CC1(C)C(C=C(Cl)Cl)C1C(=O)OC(C#N)c1cccc(Oc2ccccc2)c1 (stereo not drawn) [α-cypermethrin] | above 21 g/m^3 |  |  |  | 
Fc1ccc([C@]2(Cn3cncn3)O[C@H]2c2ccccc2Cl)cc1 (racemic) [Solution of epoxiconazole, epoxiconazole] |  | 110-160 g/m^3 | <190 g/m^3 | 110-180 g/m^3 | <190 g/m^3

— patent publication US8974806B2, “Method for producing aqueous active substance compositions of active substances that are hardly soluble in water” (priority 2004, dated 2015)
